According to PMC7403827 (Clinical and Translational Medicine, 2020):

Experiment: Adverse events (CTCAE 4.0) under apatinib plus gefitinib
Type: in vivo, human
Details: Apatinib 250 mg Cohort (n = 7), with gefitinib 250 mg; treatment‐related AE, patients (%)

## N#CC1(c2ccc(NC(=O)c3cccnc3NCc3ccncc3)cc2)CCCC1 [Apatinib]
  Abdominal distention, ALL: 2 (28.6%)
  Abdominal distention, Grade 1–2: 2 (28.6%)
  Abdominal distention, Grade 3–4: 0
  Blurred vision, ALL: 0
  Blurred vision, Grade 1–2: 0
  Blurred vision, Grade 3–4: 0
  Cough, ALL: 4 (57.1%)
  Cough, Grade 1–2: 4 (57.1%)
  Cough, Grade 3–4: 0
  Diarrhea, ALL: 5 (71.4%)
  Diarrhea, Grade 1–2: 5 (71.4%)
  Diarrhea, Grade 3–4: 0
  Dizziness, ALL: 0
  Dizziness, Grade 1–2: 0
  Dizziness, Grade 3–4: 0
  Dry skin, ALL: 2 (28.6%)
  Dry skin, Grade 1–2: 2 (28.6%)
  Dry skin, Grade 3–4: 0
  Dysgeusia, ALL: 1 (14.3%)
  Dysgeusia, Grade 1–2: 1 (14.3%)
  Dysgeusia, Grade 3–4: 0
  Eczema, ALL: 1 (14.3%)
  Eczema, Grade 1–2: 1 (14.3%)
  Eczema, Grade 3–4: 0
  Elevated ALT, ALL: 3 (42.9%)
  Elevated ALT, Grade 1–2: 2 (28.6%)
  Elevated ALT, Grade 3–4: 1 (14.3%)
  Elevated AST, ALL: 2 (28.6%)
  Elevated AST, Grade 1–2: 1 (14.3%)
  Elevated AST, Grade 3–4: 1 (14.3%)
  Epistaxis, ALL: 3 (42.9%)
  Epistaxis, Grade 1–2: 3 (42.9%)
  Epistaxis, Grade 3–4: 0
  Fatigue, ALL: 2 (28.6%)
  Fatigue, Grade 1–2: 2 (28.6%)
  Fatigue, Grade 3–4: 0
  Gastrointestinal bleeding, ALL: 1 (14.3%)
  Gastrointestinal bleeding, Grade 1–2: 1 (14.3%)
  Gastrointestinal bleeding, Grade 3–4: 0
  HFSR, ALL: 2 (28.6%)
  HFSR, Grade 1–2: 2 (28.6%)
  HFSR, Grade 3–4: 0
  Haematuria, ALL: 1 (14.3%)
  Haematuria, Grade 1–2: 1 (14.3%)
  Haematuria, Grade 3–4: 0
  Headache, ALL: 1 (14.3%)
  Headache, Grade 1–2: 1 (14.3%)
  Headache, Grade 3–4: 0
  Hematochezia, ALL: 1 (14.3%)
  Hematochezia, Grade 1–2: 1 (14.3%)
  Hematochezia, Grade 3–4: 0
  Hypertension, ALL: 5 (71.4%)
  Hypertension, Grade 1–2: 4 (57.1%)
  Hypertension, Grade 3–4: 1 (14.3%)
  Increased bilirubin, ALL: 1 (14.3%)
  Increased bilirubin, Grade 1–2: 1 (14.3%)
  Increased bilirubin, Grade 3–4: 0
  Increased creatinine, ALL: 0
  Increased creatinine, Grade 1–2: 0
  Increased creatinine, Grade 3–4: 0
  Leukopenia, ALL: 0
  Leukopenia, Grade 1–2: 0
  Leukopenia, Grade 3–4: 0
  Nausea, ALL: 0
  Nausea, Grade 1–2: 0
  Nausea, Grade 3–4: 0
  Neutropenia, ALL: 0
  Neutropenia, Grade 1–2: 0
  Neutropenia, Grade 3–4: 0
  Oulorrhagia, ALL: 3 (42.9%)
  Oulorrhagia, Grade 1–2: 3 (42.9%)
  Oulorrhagia, Grade 3–4: 0
  Paronychia, ALL: 1 (14.3%)
  Paronychia, Grade 1–2: 1 (14.3%)
  Paronychia, Grade 3–4: 0
  Periodontitis, ALL: 1 (14.3%)
  Periodontitis, Grade 1–2: 1 (14.3%)
  Periodontitis, Grade 3–4: 0
  Pharyngalgia, ALL: 1 (14.3%)
  Pharyngalgia, Grade 1–2: 1 (14.3%)
  Pharyngalgia, Grade 3–4: 0
  Pneumonia (non‐interstitial), ALL: 1 (14.3%)
  Pneumonia (non‐interstitial), Grade 1–2: 1 (14.3%)
  Pneumonia (non‐interstitial), Grade 3–4: 0
  Proteinuria, ALL: 3 (42.9%)
  Proteinuria, Grade 1–2: 2 (28.6%)
  Proteinuria, Grade 3–4: 1 (14.3%)
  Pruritus, ALL: 0
  Pruritus, Grade 1–2: 0
  Pruritus, Grade 3–4: 0
  Rash, ALL: 5 (71.4%)
  Rash, Grade 1–2: 5 (71.4%)
  Rash, Grade 3–4: 0
  Stomatitis, ALL: 2 (28.6%)
  Stomatitis, Grade 1–2: 2 (28.6%)
  Stomatitis, Grade 3–4: 0
  Thrombocytopenia, ALL: 0
  Thrombocytopenia, Grade 1–2: 0
  Thrombocytopenia, Grade 3–4: 0
  Trachyphonia, ALL: 2 (28.6%)
  Trachyphonia, Grade 1–2: 2 (28.6%)
  Trachyphonia, Grade 3–4: 0
  Vomiting, ALL: 0
  Vomiting, Grade 1–2: 0
  Vomiting, Grade 3–4: 0
